Columns and labels:
giant foxtail = assay: Test B pre-/postemergence herbicide test; format: in vivo, Setaria faberi
In short: (§1)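 Response was scored visually 13 to 15 days after treatment against untreated greenhouse controls, 0 meaning no effect and 100 complete control. Formulations (solvent mixture plus surfactant) went onto soil after planting, onto foliage of 1- to 4-leaf plants, and onto 2-leaf plants in a flooded paddy set including rice and barnyardgrass.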

rice [1] = assay: Test B flooded paddy test; format: in vivo, Oryza sativa; conditions: 1000 g ai/ha, visual rating, scale 0 to 100 (0 no effect, 100 complete control), 13 to 15 days
In short: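 Postemergence plants were sprayed with formulated test chemicals at 2 to 18 cm height (1- to 4-leaf stage); paddy species were grown to the 2-leaf stage. After 13 to 15 days in a greenhouse, injury was rated visually against untreated controls on a 0–100 scale (0 = no effect, 100 = complete control).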

barnyardgrass [2] = assay: Test B pre-/postemergence herbicide test; format: in vivo, Echinochloa crus-galli
In short: (§2)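 Evaluation is visual, comparing treated with control plants on a scale where 0 means no effect and 100 means full control. Treatments were preemergence, or postemergence on seedlings 2–18 cm tall, and held 13–15 days in the greenhouse.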

morningglory = assay: Test B pre-/postemergence herbicide test; format: in vivo, Ipomoea coccinea
In short: as §2

Surinam grass = assay: Test B pre-/postemergence herbicide test; format: in vivo, Urochloa decumbens
In short: as §1

rice [3] = assay: Test B pre-/postemergence herbicide test; format: in vivo, Oryza sativa; conditions: preemergence, 125 g ai/ha; 0 to 100 scale, 0 is no effect, 100 is complete control
From the text: Seeds selected from barnyardgrass (Echinochloa crus-galli (L.) Beauv.), Surinam grass (Urochloa decumbens (Staph) R. D. Webster, previously named Brachiaria decumbens Stapf), cocklebur (Xanthium strumarium L.), corn (Zea mays L.), large crabgrass (Digitaria sanguinalis (L.) Scop.), giant foxtail (Setaria faberi Herim.), lambsquarters (Chenopodium album L.), morningglory (Ipomoea coccinea L.), pigweed (Amaranthus retroflexus L.), rice (Oryza sativa L.) and velvetleaf (Abutilon theophrasti Medik.) were planted and treated preemergence with test chemicals formulated in a non-phytotoxic solvent mixture which included a surfactant.
At the same time, plants selected from these crop and weed species and also blackgrass (Alopecurus myosuroides Huds.), wheat (Triticum aestivum L.) and wild oat (Avena fatua L.) were treated with postemergence applications of test chemicals formulated in the same manner. Plants ranged in height from 2 to 18 cm (1- to 4-leaf stage) for postemergence treatments. Plant species in the flooded paddy test consisted of rice (Oryza sativa L.), small flower umbrella sedge (Cyperus difformis L.), ducksalad (Heteranthera limosa (Sw.) Willd.) and barnyardgrass (Echinochloa crus-galli (L.) Beauv.) grown to the 2-leaf stage for testing. Treated plants and controls were maintained in a greenhouse for 13 to 15 days, after which time all species were compared to controls and visually evaluated. Plant response ratings, summarized in Table B, are based on a scale of 0 to 100 where 0 is no effect and 100 is complete control. A dash (-) response means no test result.

lambsquarters = assay: Test B pre-/postemergence herbicide test; format: in vivo, Chenopodium album
In short: as §1

blackgrass = assay: Test B postemergence herbicide test; format: in vivo, Alopecurus myosuroides; conditions: scale 0 (no effect) to 100 (complete control)
In short: (§3)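 Each value is a visual 0–100 response rating taken against controls 13 to 15 days after treatment in the greenhouse. Plants received formulated chemical postemergence at the 1- to 4-leaf stage or, in flooded paddy, at the 2-leaf stage.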

barnyardgrass [4] = assay: Test B flooded paddy test; format: in vivo, Echinochloa crus-galli; conditions: 1000 g ai/ha, visual rating, scale 0 to 100 (0 no effect, 100 complete control), 13 to 15 days
In short: as §3

wheat = assay: Test B postemergence herbicide test; format: in vivo, Triticum aestivum; design: key to Wheat plant response rating: 0 = no effect, 100 = complete control; conditions: scale 0 (no effect) to 100 (complete control)
In short: (§4)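 Read-out: visual comparison with controls, scored 0 to 100, where 100 means complete control and 0 no effect. Formulated chemicals were applied postemergence to plants 2–18 cm tall (1- to 4-leaf), or to flooded-paddy plants at the 2-leaf stage, then held 13 to 15 days under glass.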

pigweed = assay: Test B pre-/postemergence herbicide test; format: in vivo, Amaranthus retroflexus
In short: as §1

[5] = tested on: small flower umbrella sedge; assay: Test B flooded paddy test; format: in vivo, Cyperus difformis; conditions: 1000 g ai/ha, visual rating, scale 0 to 100 (0 no effect, 100 complete control), 13 to 15 days
In short: as §3

large crabgrass = assay: Test B pre-/postemergence herbicide test; format: in vivo, Digitaria sanguinalis
In short: as §1

ducksalad = assay: Test B flooded paddy test; format: in vivo, Heteranthera limosa; conditions: 1000 g ai/ha, visual rating, scale 0 to 100 (0 no effect, 100 complete control), 13 to 15 days
In short: as §3

wild oat = assay: Test B postemergence herbicide test; format: in vivo, Avena fatua; conditions: scale 0 (no effect) to 100 (complete control)
In short: as §4

velvetleaf = assay: Test B pre-/postemergence herbicide test; format: in vivo, Abutilon theophrasti
In short: as §1

corn = assay: Test B pre-/postemergence herbicide test; format: in vivo, Zea mays
In short: as §1

cocklebur = assay: Test B pre-/postemergence herbicide test; format: in vivo, Xanthium strumarium
In short: as §2

[6] = Postemergence, 500 g ai/ha, visual rating after 13 to 15 days, scale 0 (no effect) to 100 (complete control)
[7] = Preemergence, 500 g ai/ha, scale 0 to 100
[8] = postemergence, 125 g ai/ha, visual rating, scale 0 (no effect) to 100 (complete control)
[9] = preemergence, 125 g ai/ha, 0 to 100 scale, 0 is no effect, 100 is complete control
[10] = Postemergence, 500 g ai/ha, visual rating after 13 to 15 days
[11] = postemergence, 125 g ai/ha, visual rating

CCN(CC)C(=O)c1cc(NC(=O)c2cc(C(C)(C)C)nn2CC)ccc1C [Compound 69]
Plant response rating, Foxtail, Giant (giant foxtail; [6]): 0
Foxtail, Giant plant response rating (giant foxtail; [7]): 0
Foxtail, Giant plant response rating (giant foxtail; [8]): 0
Plant response rating, Foxtail, Giant (giant foxtail; [9]): 0
Rice plant response rating (rice [1]): 0
Plant response rating, Barnyardgrass (barnyardgrass [2]; [6]): 0
Barnyardgrass plant response rating (barnyardgrass [2]; [7]): 0
Barnyardgrass plant response rating (barnyardgrass [2]; [8]): 0
Plant response rating, Barnyardgrass (barnyardgrass [2]; [9]): 0
Plant response rating, Morningglory (morningglory; [6]): 0
Morningglory plant response rating (morningglory; [8]): 0
Plant response rating, Morningglory (morningglory; [9]): 0
Plant response rating, Surinam Grass (Surinam grass; [6]): 0
Surinam Grass plant response rating (Surinam grass; [8]): 0
Plant response rating, Surinam Grass (Surinam grass; [9]): 0
Plant response rating, Rice (rice [3]): 0
Plant response rating, Lambsquarters (lambsquarters; [6]): 10
Lambsquarters plant response rating (lambsquarters; [8]): 0
Plant response rating, Lambsquarters (lambsquarters; [9]): 0
Plant response rating, Blackgrass (blackgrass; [10]): 30
Blackgrass plant response rating (blackgrass; [11]): 10
Barnyardgrass plant response rating (barnyardgrass [4]): 0
Plant response rating, Wheat (wheat; [10]): 0
Wheat plant response rating (wheat; [11]): 0
Plant response rating, Pigweed (pigweed; [6]): 20
Pigweed plant response rating (pigweed; [8]): 10
Plant response rating, Pigweed (pigweed; [9]): 0
Sedge, Umbrella plant response rating [5]: 0
Plant response rating, Crabgrass, Large (large crabgrass; [6]): 0
Crabgrass, Large plant response rating (large crabgrass; [7]): 0
Crabgrass, Large plant response rating (large crabgrass; [8]): 0
Plant response rating, Crabgrass, Large (large crabgrass; [9]): 0
Ducksalad plant response rating (ducksalad): 0
Plant response rating, Oat, Wild (wild oat; [10]): 20
Oat, Wild plant response rating (wild oat; [11]): 10
Plant response rating, Velvetleaf (velvetleaf; [6]): 0
Velvetleaf plant response rating (velvetleaf; [8]): 0
Plant response rating, Velvetleaf (velvetleaf; [9]): 0
Plant response rating, Corn (corn; [6]): 0
Corn plant response rating (corn; [7]): 0
Corn plant response rating (corn; [8]): 0
Plant response rating, Corn (corn; [9]): 0
Plant response rating, Cocklebur (cocklebur; [6]): 0
Cocklebur plant response rating (cocklebur; [8]): 0
Plant response rating, Cocklebur (cocklebur; [9]): 0

— patent publication US20060069132A1, “Azolecarboxamide herbicides” (priority 2004, published 2006)
